Test results published in ChEMBL document CHEMBL1201862, “PubChem BioAssay data set” (2004).
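Where inhibition never reached the appropriate level, the endpoint shown equals the highest concentration tested. Otherwise, values were interpolated linearly from a five-concentration, 48-hour dose response in 96-well plates. GI50 is the concentration that inhibits growth by half.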 Calls of active or inactive are those of the source. Cut-off read from the data, not from the text of the source: active = GI50 up to about 1.1 µM and inactive = higher.

What was measured:
Assay in all cases: DTP human tumour cell line panel, 48 h
[1] = system: 786-0
[2] = system: CCRF-CEM
[3] = system: DLD-1
[4] = system: EKVX
[5] = system: HL-60
[6] = system: HOP-92
[7] = system: IGROV-1
[8] = system: KM-20L2
[9] = system: LOX IMVI
[10] = system: M14
[11] = system: MOLT-4
[12] = system: NCI-H460
[13] = system: SF-268
[14] = system: SF-295
[15] = system: SN12C
[16] = system: UACC-257
[17] = system: UACC-62
[18] = system: DMS-114
[19] = system: RPMI-8226
[20] = system: MDA-MB-435

Measured: GI50

Cc1ccc(-n2c(C)nc3c2C(=O)c2ccccc2C3=O)cc1
inactive: [1] 18.5 µM | [2] 11.1 µM | [3] 9.33 µM | [4] > 100 µM | [5] 9.14 µM | [6] 49.4 µM | [7] 27.9 µM | [8] 18.3 µM | [9] 7.98 µM | [10] 58.2 µM | [11] > 100 µM | [12] 4.44 µM | [13] 7.41 µM | [14] 25 µM | [15] 28.4 µM | [16] 19.1 µM | [17] 8.57 µM

OC1C2CCC1C1C3C=CC(C3)C21 (configuration not stated)
inactive: [1] > 100 µM | [2] 39.6 µM | [3] > 100 µM | [18] 59.6 µM | [4] > 100 µM | [5] 38.1 µM | [6] 34.4 µM | [7] > 100 µM | [8] 77.3 µM | [9] 86.5 µM | [10] > 100 µM | [11] 64.9 µM | [12] > 100 µM | [19] 42.9 µM | [13] > 100 µM | [14] 61.5 µM | [16] > 100 µM | [17] > 100 µM

Cc1c(C(=O)O)n(C)c(=O)n(C)c1=O
inactive: [1] > 100 µM | [2] > 100 µM | [3] > 100 µM | [4] > 100 µM | [5] > 100 µM | [6] > 100 µM | [7] > 100 µM | [8] > 100 µM | [9] > 100 µM | [10] > 100 µM | [11] > 100 µM | [12] > 100 µM | [13] > 100 µM | [14] > 100 µM | [15] > 100 µM | [16] > 100 µM | [17] > 100 µM

COc1cc2cccc(NC(=O)c3cc(OC)c(OC)c(OC)c3Br)c2cc1OC
inactive: [1] 29.2 µM | [2] 4.56 µM | [3] 24.8 µM | [18] 3.12 µM | [4] 21.1 µM | [7] 14.4 µM | [8] 25.7 µM | [10] 11.3 µM | [11] 2.79 µM | [12] 12.5 µM | [19] 2.45 µM | [13] 18.5 µM | [14] 12.5 µM | [15] 16.6 µM | [16] 3.85 µM | [17] 10.3 µM

COc1ccc(NC(=O)CSc2nnc(-c3ccc(NC(C)=O)cc3)o2)cc1
inactive: [1] 17.2 µM | [2] 9.55 µM | [3] 19.3 µM | [18] 5.6 µM | [4] 23 µM | [5] 21.9 µM | [7] 15.5 µM | [8] 19.5 µM | [9] 10.9 µM | [10] 17 µM | [11] 17.4 µM | [12] 15.5 µM | [13] 15.8 µM | [14] 15.3 µM | [15] 20 µM | [16] 21.5 µM | [17] 16.5 µM

COc1ccc(-c2ccccc2)c2[nH]c3c(c12)CCNC3=O
inactive: [1] > 100 µM | [2] > 100 µM | [3] > 100 µM | [4] > 100 µM | [5] > 100 µM | [6] > 100 µM | [7] > 100 µM | [8] > 100 µM | [9] > 100 µM | [10] > 100 µM | [11] > 100 µM | [12] > 100 µM | [19] > 100 µM | [13] > 100 µM | [14] > 100 µM | [15] > 100 µM | [16] > 100 µM | [17] > 100 µM

CC(=O)CN(Cc1cc(C)c2c(c1)c1ccccc1n2Cc1ccccc1)S(=O)(=O)c1ccc(C)cc1
inactive: [1] > 100 µM | [2] > 100 µM | [3] > 100 µM | [18] > 100 µM | [4] > 100 µM | [5] > 100 µM | [6] > 100 µM | [7] > 100 µM | [10] > 100 µM | [11] > 100 µM | [19] > 100 µM | [13] > 100 µM | [14] > 100 µM | [16] > 100 µM | [17] > 100 µM

COc1ccc(Cl)cc1NC(=O)c1cccc([N+](=O)[O-])c1O
inactive: [1] 16.8 µM | [2] 16 µM | [3] 8.95 µM | [4] 9.82 µM | [5] 19.1 µM | [6] 3 µM | [7] 8.34 µM | [8] 15 µM | [9] 13.7 µM | [10] 24.4 µM | [20] 14.4 µM | [11] 16.8 µM | [12] 15.7 µM | [19] 5.07 µM | [13] 17.9 µM | [14] 17.8 µM | [15] 12.6 µM | [16] 15.2 µM | [17] 6.82 µM
